According to patent US10065990B2, “Cyclic peptide compound, and preparation method, pharmaceutical composition and use thereof” (HANGZHOU GUANYU BIO-MEDICAL CO., LTD, priority 2013, dated 2018):
Like-named read-outs stand apart in the source and are kept apart here.

Columns and labels:
HDAC7 = target: T1, HDAC7 (Homo sapiens, UniProt Q8WUI4); assay: HDAC biochemical activity measurement (fluorescent substrate deacetylation);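 note: fluorogenic deacetylation assay using acetyl-lysine substrate at 20 µM, enzyme and compound incubated 30 min at 37 °C, then developer added, fluorescence read at 360/460 nm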; details: HDAC7; 37° C. 30 minutes
T1 sequence (Q8WUI4 1-952): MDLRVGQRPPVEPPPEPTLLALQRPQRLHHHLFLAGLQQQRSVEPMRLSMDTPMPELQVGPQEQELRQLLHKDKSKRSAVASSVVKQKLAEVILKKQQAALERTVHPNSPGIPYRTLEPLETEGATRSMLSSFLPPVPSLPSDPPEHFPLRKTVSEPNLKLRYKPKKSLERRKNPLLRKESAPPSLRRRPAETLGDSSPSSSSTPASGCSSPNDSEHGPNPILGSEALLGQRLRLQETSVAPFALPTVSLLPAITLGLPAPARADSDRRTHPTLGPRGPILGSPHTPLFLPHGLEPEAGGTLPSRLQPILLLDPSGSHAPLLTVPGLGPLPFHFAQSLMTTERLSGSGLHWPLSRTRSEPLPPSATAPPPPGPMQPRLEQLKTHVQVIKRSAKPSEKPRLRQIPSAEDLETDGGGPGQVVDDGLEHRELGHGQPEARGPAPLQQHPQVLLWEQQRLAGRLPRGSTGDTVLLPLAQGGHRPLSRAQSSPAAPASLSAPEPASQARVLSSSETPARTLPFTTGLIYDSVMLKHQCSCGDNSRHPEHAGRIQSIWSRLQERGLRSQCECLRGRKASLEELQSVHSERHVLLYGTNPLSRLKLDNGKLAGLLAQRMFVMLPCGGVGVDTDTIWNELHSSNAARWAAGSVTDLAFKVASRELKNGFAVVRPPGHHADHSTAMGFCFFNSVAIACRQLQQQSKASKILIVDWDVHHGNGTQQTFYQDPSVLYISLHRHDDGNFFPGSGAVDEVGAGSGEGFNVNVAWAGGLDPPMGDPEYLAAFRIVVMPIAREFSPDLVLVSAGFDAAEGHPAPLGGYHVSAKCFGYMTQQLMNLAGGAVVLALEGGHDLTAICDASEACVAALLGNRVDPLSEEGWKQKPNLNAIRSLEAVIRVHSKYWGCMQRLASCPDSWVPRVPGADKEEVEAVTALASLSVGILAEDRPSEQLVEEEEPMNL

[1] = system: A549 (human lung cancer cells); assay: MTT cancer cell growth inhibition; assay type: cell-based; details: Homo sapiens, A549, 72 h, MTT, 72 hours incubation, read-out: GI50 A54
Outline: (§1)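 Using a 72 h MTT format, triplicate wells of 1500 cells received compound concentrations from 10^−5 to 10^−10 M. Formazan was read at 570 nm after DMSO dissolution, and GI50 was derived from viability.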

[2] = system: BGC-823 (human gastric cancer cells); assay: MTT cancer cell growth inhibition; assay type: cell-based; details: Homo sapiens, BGC-823, 72 h, MTT, 72 hours incubation, read-out: GI50 BG
Outline: as §1

[3] = system: Bel-7402 (human hepatoma cells); assay: MTT cancer cell growth inhibition; assay type: cell-based; details: Homo sapiens, Bel-7402, 72 h, MTT, 72 hours incubation, Bel-7402 cells; read-out: GI50 Bel-7402
Outline: as §1

[4] = system: DU145 (human prostate cancer cells); assay: MTT cancer cell growth inhibition; assay type: cell-based; details: Homo sapiens, DU-145, 72 h, MTT, 72 hours incubation, read-out: GI50 Du1
Outline: as §1

[5] = system: H1975 (non-small cell lung adenocarcinoma); assay: MTT cancer cell growth inhibition; assay type: cell-based; details: Homo sapiens, NCI-H1975, 72 h, MTT, 72 hours incubation, H1975 cells; read-out: GI50 H1975
Outline: as §1

[6] = system: HCC827 (human non-small cell lung cancer cells); assay: MTT cancer cell growth inhibition; assay type: cell-based; details: Homo sapiens, HCC827, 72 h, MTT, 72 hours incubation, HCC827 cells; read-out: GI50 HCC827
Outline: as §1

[7] = system: HT1080 (human fibrosarcoma cells); assay: MTT cancer cell growth inhibition; assay type: cell-based; details: Homo sapiens, HT-1080, 72 h, MTT, 72 hours incubation, read-out: GI50 HT1
Outline: as §1

[8] = system: Hela (human cervical cancer cells); assay: MTT cancer cell growth inhibition; assay type: cell-based; details: Homo sapiens, HeLa, 72 h, MTT, 72 hours incubation, read-out: GI50 Hela
Outline: as §1

[9] = system: Huh-7 (human hepatoma cells); assay: MTT cancer cell growth inhibition; assay type: cell-based; details: Homo sapiens, Huh-7, 72 h, MTT, 72 hours incubation, Huh-7 cells; read-out: GI50 Huh-7
Outline: as §1

[10] = system: K562 (human leukemia cells); assay: MTT cancer cell growth inhibition; assay type: cell-based; details: Homo sapiens, K562, 72 h, MTT, 72 hours incubation, K562 cells; read-out: GI50 K562
Outline: as §1

[11] = system: KBM-5 (human chronic myelogenous leukemia); assay: MTT cancer cell growth inhibition; assay type: cell-based; details: Homo sapiens, KBM5, 72 h, MTT, 72 hours incubation, KBM-5 cells; read-out: GI50 KBM-5
Outline: as §1

[12] = system: KBM5-T315I (human chronic myelogenous leukemia); assay: MTT cancer cell growth inhibition; assay type: cell-based; details: Homo sapiens, 72 h, MTT, 72 hours incubation, KBM5-T315I cells; read-out: GI50 KBM5-T315I
Outline: as §1

[13] = system: MCF-7 (human breast cancer cells); assay: MTT cancer cell growth inhibition; assay type: cell-based; details: Homo sapiens, MCF7, 72 h, 72 hours incubation, read-out: GI50 MCF
Outline: as §1

[14] = system: MDA-MB-231 (breast cancer cells); assay: MTT cancer cell growth inhibition; assay type: cell-based; details: Homo sapiens, MDA-MB-231, 72 h, read-out: GI50 MDA-MB-231, MTT, 72 hours incubation, MDA-MB-231 cells
Outline: as §1

[15] = system: MOLT-4 (human acute lymphoblastic leukemia cells); assay: MTT cancer cell growth inhibition; assay type: cell-based; details: Homo sapiens, MOLT-4, 72 h, MTT, 72 hours incubation, read-out: GI50 Mol
Outline: as §1

[16] = system: N-87 (human gastric cancer cells); assay: MTT cancer cell growth inhibition; assay type: cell-based; details: Homo sapiens, 72 h, MTT, 72 hours incubation, N-87 cells; read-out: GI50 N-87
Outline: as §1

[17] = system: PANC-1 (Pac-1, human pancreatic cancer cells); assay: MTT cancer cell growth inhibition; assay type: cell-based; details: Homo sapiens, PANC-1, 72 h, MTT, 72 hours incubation, read-out: GI50 PAN
Outline: as §1

[18] = system: SGC-7901 (human gastric cancer cells); assay: MTT cancer cell growth inhibition; assay type: cell-based; details: Homo sapiens, SGC-7901, 72 h, MTT, 72 hours incubation, SGC-7901 cells; read-out: GI50 SGC-7901
Outline: as §1

[19] = system: U937 (human leukemia cells); assay: MTT cancer cell growth inhibition; assay type: cell-based; details: Homo sapiens, U-937, 72 h, MTT, 72 hours incubation, read-out: GI50 U93
Outline: as §1

[20] = system: lncap (prostate cancer cells); assay: MTT cancer cell growth inhibition; assay type: cell-based; details: Homo sapiens, LNCaP, 72 h, MTT, 72 hours incubation, read-out: GI50 lnca
Outline: as §1

| Structure (SMILES) | IC50 HDAC7 (HDAC7) | GI50 [3] [µM] | GI50 [5] [µM] | GI50 [6] [µM] | GI50 [9] [µM] | GI50 [10] [µM] | GI50 [11] [µM] | GI50 [12] [µM] | GI50 [14] [µM] | GI50 [16] [µM] | GI50 [18] [µM] | GI50 ([1]; A549 cells) [µM] | GI50 ([2]; BGC-823 cells) [µM] | GI50 ([4]; DU145 cells) [µM] | GI50 ([7]; HT1080 cells) [µM] | GI50 ([8]; Hela cells) [µM] | GI50 ([13]; MCF-7 cells) [µM] | GI50 ([15]; MOLT-4 cells) [µM] | GI50 ([17]; PANC-1 cells) [µM] | GI50 ([19]; U937 cells) [µM] | other results |
| --- | --- | --- | --- | --- | --- | --- | --- | --- | --- | --- | --- | --- | --- | --- | --- | --- | --- | --- | --- | --- | --- |
| C/C=C1\NC(=O)c2ncc(F)c(n2)CNC(=O)C[C@@H](/C=C/CCSC(C)=O)OC(=O)[C@H](C(C)C)NC1=O [Compound 97] | no activity | 0.059 | 0.042 | 0.039 | 0.013 | 0.029 | 0.093 | 0.026 | 0.031 | 0.031 | 0.024 | – | – | – | – | – | – | – | – | – | GI50 [1]: 0.05 µM; GI50 [2]: 0.03 µM; GI50 [4]: 0.01 µM; GI50 [7]: 0.07 µM; GI50 [8]: 0.09 µM; GI50 [13]: 0.03 µM; GI50 [15]: 0.02 µM; GI50 [17]: 0.07 µM; GI50 [19]: 0.03 µM; GI50 [20]: 0.02 µM |
| C/C=C1\NC(=O)c2cc(SC)cc(n2)CNC(=O)C[C@@H](/C=C/CCSC(=O)CCCCCCC)OC(=O)[C@H](Cc2ccccc2)NC1=O [Compound 190] | no activity | 0.028 | 0.023 | 0.056 | 0.075 | 0.063 | 0.057 | 0.017 | 0.067 | 0.048 | 0.086 | 0.02 | 0.05 | 0.02 | 0.02 | 0.06 | 0.03 | 0.07 | 0.06 | 0.05 | GI50 ([20]; lncap cells): 0.03 µM |
| C/C=C1\NC(=O)c2nc(ccc2F)CNC(=O)C[C@@H](/C=C/CCS)OC(=O)[C@H](C)NC1=O [Compound 112] | no activity | 0.023 | 0.016 | 0.073 | 0.035 | 0.055 | 0.021 | 0.031 | 0.058 | 0.073 | 0.041 | – | – | – | – | – | – | – | – | – | GI50 [1]: 0.06 µM; GI50 [2]: 0.08 µM; GI50 [4]: 0.06 µM; GI50 [7]: 0.09 µM; GI50 [8]: 0.07 µM; GI50 [13]: 0.06 µM; GI50 [15]: 0.09 µM; GI50 [17]: 0.08 µM; GI50 [19]: 0.06 µM; GI50 [20]: 0.07 µM |
| C/C=C1\NC(=O)c2nc(ccc2SC)CCNC(=O)C[C@@H](/C=C/CCSC(C)=O)OC(=O)[C@H](C(C)C)NC1=O [Compound 223] | no activity | 0.032 | 0.019 | 0.027 | 0.054 | 0.055 | 0.053 | 0.028 | 0.035 | 0.075 | 0.096 | 0.02 | 0.03 | 0.06 | 0.08 | 0.05 | 0.04 | 0.05 | 0.05 | 0.02 | GI50 ([20]; lncap cells): 0.01 µM |
| C/C=C1\NC(=O)c2ccc(SC)c(n2)CNC(=O)C[C@@H](/C=C/CCS)OC(=O)[C@H](C(C)C)NC1=O [Compound 228] | no activity | 0.056 | 0.048 | 0.017 | 0.035 | 0.062 | 0.062 | 0.033 | 0.069 | 0.035 | 0.012 | 0.03 | 0.06 | 0.02 | 0.04 | 0.01 | 0.03 | 0.05 | 0.03 | 0.04 | GI50 ([20]; lncap cells): 0.02 µM |
